Source: patent US11090305B2, “Methods and compositions to reduce oxidative stress” (University of Massachusetts, priority 2009, dated 2021)

Key:
HSCs = assay: Competitive HSC transplantation, bone marrow repopulation; type: in vivo, mouse; details: for outcome of competitive transplant with CD45.2 WT HSCs: WT donor mice treated 2 weeks before harvest
Experimental: HSC were purified from freshly harvested bone marrow mononuclear cells as c-Kit^+Sca-1^+CD90.1^lowLin^− by FACS sorting. Recipient mice were C57BL/6 (WT) on standard chow. Recipients underwent lethal irradiation (1100 Rads delivered in 2 doses 3 hr apart). Immediately after the 2nd irradiation, recipients were anesthetized (2% isoflurane) and 10^6 HSC/0.1 ml sterile PBS were transplanted via retro-orbital injection. Mice were followed for 12 weeks before study or administration of AOM.
The functional consequence of this loss of quiescence by competitive transplantation was investigated next, insofar as the presence of quiescent HSC are critical for successful bone marrow reconstitution. HSCs from CD45.2 ApoE^−/− or HCD mice were mixed 1:1 with CD45.1 WT HSCs and then transplanted into lethally irradiated CD45.1 WT recipients.
Activation of p38 MAPK reduces HSC quiescence in Atm^−/− mice. To evaluate this phenomena in hypercholesterolemic mice, ApoE^−/− and WT mice were treated with the selective p38 MAPK inhibitor SB203580 or the MEK 1 inhibitor PD98059 for 2 weeks prior to harvest of HSCs for transplant. CD45.2 ApoE^−/− or WT HSCs with mixed 1:1 with CD45.1 WT HSCs and transplanted into lethally irradiated CD45.1 recipient mice.

[1] = system: p19^Arf, p21^Waf1, and p27^Kip1; assay: RT-PCR expression of p19^Arf, p21^Waf1, p27^Kip1 in HSCs; type: in vivo, mouse
Experimental: The expression of p15^Ink4b, p16^Ink4a, p18^Ink4c, p19^ARF, P21^Waf1, and p27^Kip1 was determined using RT-PCR, a more sensitive and quantitative assay, in ApoE^−/− and WT HSCs.

PAD patients = details: acute or short term supplementation, literature; cited from earlier work
Notch1 = Notch1 expression in HSCs and lymphoid progenitors (Example 5); type: in vivo, mouse
Experimental: Cells were stained with monoclonal antibodies conjugated to various fluoroprobes. These antibodies included: Notch1, cKit (2B8), Sca-1 (E13-161.7), CD4 (L3T4), CD8 (53-6.72), CD90.1, CD25, CD44, TCRβ, NK1.1, γδTCR, CD45.1, CD45.2. The lineage cocktail consisted of CD4, CD8, B220 (RA3-6B2), TER-119, Mac-1 (MI/70), and Gr-1 (RB6-8C5). All antibodies were purchased from BD Bioscience (San Diego, Calif.). FACS analysis was carried out on a FACS Diva.
The Notch family is an evolutionarily conserved system of receptors and ligands that play a fundamental role in regulating cell-fate decision in many types of stem and progenitor cells, including HSCs. Notch1 plays a critical role in lymphocyte differentiation, wherein expression of Notch1 favors T cell differentiation. To clarify the effects of hypercholesterolemia on the expression Notch family, the expression of Notch family was screened in HSCs isolated from WT and ApoE^−/− mice. The percentage of HSCs expressing of Notch1 was higher in hypercholesterolemic than WT mice, whereas no differences in Notch2, Notch4, or Delta-like-1 were noted among groups (FIG. 47A). FIGS. 47A-47D show notch 1 expression is greater in HSCs from hypercholesterolemic mice. […] (B) Within the HSC population, a higher percentage of long term-HSCs expressed Notch1 than did short term-HSCs. This difference was evident in both WT and ApoE^−/− mice, although the percentage of short term-HSCs expressing Notch1 was twofold higher in ApoE^−/− than WT mice. […] (D) Treatment of ApoE^−/−, but not WT mice with SB203580 reduced the percentage of HSCs expressing Notch1. m±sd, n=5, *p<0.05 vs. WT, †p<0.05 vs. ApoE or HCD, p<0.05 vs. long-term HSCs.

eNOS = eNOS expression in gastrocnemius muscle by western blotting (Example 2); type: in vivo, rat; details: dietary supplements from 7 days before ischemia; 14 days after induction of ischemia
Experimental: (§1) Rats were sacrificed 14 days after induction of ischemia for measurement of gastrocnemius muscle eNOS and nitrotyrosine expression. […] Samples were homogenized in liquid nitrogen and transferred to NP-40 lysis buffer, comprised of 50 mM HEPES (pH 7.5), 150 mM NaCl, 10% glycerol, 1.5 mM MgCl2, 1 mM EDTA, 100 mM NaF, 1% NP 40, 1 mM PMSF, and […] aprotinin. The lysates were centrifuged, the supernatant recovered, and the protein concentration determined (Pierce Biotechnology, Rockford, Ill.). […] Membranes were incubated overnight at 4° C. with mouse monoclonal anti-nitrotyrosine (Cayman Chemical Co., Ann Arbor, Mich., 1:1000) or mouse monoclonal anti-eNOS (BD Transduction Laboratories, San Diego, Calif., 1:1000) and then incubated for 2 h with horseradish peroxidase-conjugated anti-mouse IgG antibody (Pierce Biotechnology, 1:5000). Immunoreactive bands were visualized using the enhanced chemiluminescence system (Amersham, Arlington Heights, Ill.). Band density was quantitated by standard densitometry and the intensity of the band of interest expressed as a function of the α-tubulin band.

Ca^2+-dependent NOS [2] = assay: Ca^2+-dependent NOS activity in gastrocnemius muscle (Example 2); type: in vivo, rat; details: 14 days after induction of ischemia
Experimental: (§2) Rats were sacrificed 14 days after induction of ischemia for determination of gastrocnemius muscle NOS activity. […] Muscles were homogenized in ice-cold buffer (250 mM Tris-HCl, pH 7.4, 10 mM EDTA, 10 mM EGTA), centrifuged, and the protein in the supernatant adjusted to 5 μg/ml. Samples were incubated in 10 mM NADPH, 1 μCi/μl ^14C-Arg, 6 mM CaCl2, 50 mM Tris.HCl (pH 7.4), 6 μM BH4, 2 uM FAD, and 2 μM FMN for 30 minutes at 37° C. The reaction was stopped with 400 μl of 50 mM Hepes, pH 5.5, 5 mM EDTA. Identical samples were prepared without CaCl2 and all reactions were performed in duplicate. The radioactivity of the sample eluate was measured and expressed as CPM/μg protein. The Ca^2+-dependent NOS activity, which corresponds to the sum of the endothelial and neural NOS isoforms, was calculated by subtracting the NOS activity measured in the absence of CaCl2) from the NOS activity measured in the presence of CaCl2). The Ca^2+-independent NOS activity corresponds to inflammatory isoform of NOS, or iNOS.

[3] = system: Ca^2+-independent NOS (iNOS); assay: Ca^2+-independent NOS activity in gastrocnemius muscle (Example 2); type: in vivo, rat; details: 14 days after induction of ischemia
Experimental: as §2

nitrotyrosine = assay: Nitrotyrosine accumulation in gastrocnemius muscle by western blotting (Example 2); type: in vivo, rat; details: 14 days after induction of ischemia
Experimental: as §1

wt MSC [4] = assay: Nox 4 expression and DCF staining in wt MSC after insulin treatment; type: cell-based, mouse; details: WT MSCs, increased concentrations
Experimental: (§3) Adipocytes were identified by Oil Red O staining. m±sd, n=4, *p<0.05 vs control. […] Endothelial cells were identified by CD31 staining. m±sd, n=4, *p<0.05 vs control, #p<0.05 vs 5 nM.

wt MSC [5] = assay: Response of wt MSC to adipogenic medium (Oil Red O staining); type: cell-based, mouse; details: WT MSCs, increased concentrations
Experimental: as §3

wt MSC [6] = assay: Response of wt MSC to endogenic medium (CD31 staining); type: cell-based, mouse; details: WT MSCs, increased concentrations
Experimental: as §3

wt MSC [7] = assay: Basal PPARγ, adiponectin, eNOS and p-eNOS expression in wt MSC; type: cell-based, mouse; details: WT MSCs, increased concentrations
Experimental: as §3

Ca^2+-dependent NOS [8] = assay: Ca^2+-dependent NOS activity in gastrocnemius muscle, hindlimb ischemia (Example 1); type: in vivo, rat; details: 4 days after AdeNOS or PBS (14 days after induction of ischemia)
Experimental: A portion of the gastrocnemius muscle harvested on day 4 after AdeNOS or saline administration (14 days after induction of ischemia) was snap frozen in liquid N2 for subsequent analysis of Ca^2+-dependent NOS activity (EMD Chemicals, Gibbstown, N.J.). 50 μg of muscle protein homogenate was incubated in 10 mM NADPH, 1 μCi/μl ^14C-arginine, 6 mM CaCl2, 50 mM Tris.HCl (pH 7.4), 6 μM BH4, 2 μM FAD, and 2 μM FMN for 30 minutes at 37° C. The reaction was stopped with 400 μl of 50 mM Hepes (pH 5.5) and 5 mM EDTA. Identical samples were prepared without CaCl2 and all reactions were performed in duplicate. The radioactivity of the sample eluate was measured in a liquid scintillation counter. Enzyme activity was expressed as […] per minute per microgram protein (CPM/min/ug). The Ca^2+-NOS activity was calculated by subtracting the NOS activity measured without calcium from the total activity measured in the presence of calcium.

[9] = system: ischemic hindlimb of rats; assay: Laser Doppler perfusion imaging of hindlimb blood flow (Example 1); type: in vivo, rat; details: days after AdeNOS or PBS administration
Experimental: Hindlimb blood flow was determined by means of laser Doppler imaging (Moor Instruments, Ltd., Devon, United Kingdom). Flow was measured preoperatively, immediately after arterial excision, immediately before AdeNOS or saline administration, and on days 4, 7, 21, and 30 thereafter. Scans were obtained during inhalation of 1% isoflurane while core body temperature was maintained between 36.8-37.2° C. by means of a heating element driven by a rectal temperature probe. Scans were repeated three times and the average for each rat determined. Data were expressed as the ratio of ischemic:non-ischemic hindlimb.

[10] = system: ischemic hindlimb of rats; assay: Evaluation of muscle necrosis (NBT staining, H&E, muscle weights) (Example 1); type: in vivo, rat; details: 7 days after AdeNOS or PBS (17 days after induction of ischemia)
Experimental: Muscle necrosis was determined using cut sections of tibialis anterior and gastrocnemius muscle. Muscle samples were cut transversely into 3 pieces (cuts made in 2 mm increment); two sections were stained with nitroblue tetrazolium (NBT). These sections were incubated in phosphate buffered saline (pH 7.4) containing 0.033% NBT (Fischer Biotech, Austin, Tex.) and 0.133% NADH (Roche Diagnostics, Indianapolis, Ind.) for 10 min, and then fixed in 4% paraformaldehyde for 24 hours. The areas of viable (stained) and non-viable (unstained) tissue were quantified using Image Pro software (Media Cybernetics, Bethesda, Md.) and the average taken for each rat. The third cut muscle section was used for H&E staining.

[11] = ApoE^−/− mice, in vivo treatment

Compound: COc1cccc(-c2cc(=O)c3ccccc3o2)c1N [PD98059]
- outcome of competitive transplant with CD45.2 WT HSCs (HSCs): Neither drug affected the outcome
- HSC expression of p19^Arf, p21^Waf1, and p27^Kip1 [1, 11]: had no effect
- HSC expression of p19^Arf, p21^Waf1, and p27^Kip1 ([1]; WT HSCs): neither drug affected expression of these proteins in WT HSCs

Compound: O=C1O[C@H]([C@@H](O)CO)C(O)=C1O [vitamin C, L-ascorbic acid]
- PAD symptoms (PAD patients): reduce PAD symptoms

Compound: C[S+]([O-])c1ccc(-c2nc(-c3ccncc3)c(-c3ccc(F)cc3)[nH]2)cc1 (stereo not shown) [SB203580]
- percentage of CD45.2^+ bone marrow mononuclear cells 12 weeks after competitive transplantation (HSCs; ApoE^−/− donor mice treated before HSC harvest (NAC 4 weeks; SB203580, PD98059 2 weeks)): significantly improved the efficacy of ApoE^−/− HSCs in the competitive transplant paradigm
- outcome of competitive transplant with CD45.2 WT HSCs (HSCs): Neither drug affected the outcome
- HSC expression of p19^Arf, p21^Waf1, and p27^Kip1 [1, 11]: significantly reduced HSC expression of p19^Arf, p21^Waf1, and p27^Kip1
- HSC expression of p19^Arf, p21^Waf1, and p27^Kip1 ([1]; WT HSCs): neither drug affected expression of these proteins in WT HSCs
- percentage of HSCs expressing Notch1 (Notch1; WT mice): did not affect the WT group
- percentage of HSCs expressing Notch1 (Notch1; hypercholesterolemic mice (ApoE^−/−, HCD), in vivo treatment): significantly reduced the percentage of ApoE^−/− HSCs expressing Notch1

Compound: L-arginine α-ketoglutarate
- eNOS expression in the ischemic gastrocnemius muscle (eNOS): significantly greater than that of rats fed normal chow
- Ca^2+-dependent NOS activity in the ischemic gastrocnemius muscle (Ca^2+-dependent NOS [2]): greater than that of rats fed normal chow
- Ca^2+-independent NOS activity in the ischemic gastrocnemius muscle [3]: statistically similar to the normal chow group
- nitrotyrosine level in the ischemic gastrocnemius muscle (nitrotyrosine): significantly less than the level noted in rats fed normal chow

Compound: insulin: insulin treatment of wt MSC
- Nox 4 expression and oxidative stress (wt MSC [4]): increased Nox 4 expression and oxidative stress
- differentiation towards adipocytes (wt MSC [5]): increased differentiation towards adipocytes
- differentiation towards endothelial cells (wt MSC [6]): decreased differentiation towards endothelial cells
- PPARgamma expression (wt MSC [7]): increased PPARgamma
- p-eNOS expression (wt MSC [7]): decreased p-eNOS expression

Compound: C[C@H](O)[C@H](O)[C@H]1CNc2nc(N)[nH]c(=O)c2N1 [BH4, tetrahydrobiopterin]
- Ca^2+-dependent NOS activity in gastrocnemius muscle (Ca^2+-dependent NOS [8]): no effect
- hindlimb blood flow recovery [9]: no effect
- extent of muscle necrosis (NBT staining) [10]: no effect
